Assay results reported in patent US20220233556A1, “COMPOSITIONS AND METHODS FOR TREATING OPHTHALMIC CONDITIONS” (Medicon Pharmaceuticals, Inc., priority 2017, published 2022).

Assays:
[1] = tested on: uveitis; test: LPS-induced uveitis in rats; format: in vivo; settings: PS 3% once intravitreally, 48 h
Description: Uveitis was produced in rats by injecting LPS 75 ng into the footpad of rats. The rats were injected once intravitreally with 2 μPS 3% or vehicle. A control group included naïve rats (not LPS, no treatment). Forty-eight hours later we examined their eyes, sampled the aqueous humor and after euthanizing them we excised, fixed and stained with H&E ocular tissues following standard protocols. […] These findings document a very strong and unexpected therapeutic effect of PS against uveitis.

[2] = tested on: Staphylococcus aureus; test: Disk diffusion method, antibiotic disks impregnated with PS; format: cell-based; settings: PS 1-9% vs 0% PS
Description: It was assessed whether the combination of PS with antibiotics for their topical application to the eye affects the antimicrobial activity of the antibiotics. To this end, the disk diffusion method was used.
Briefly, Staphylococcus aureus grown in culture was seeded evenly on Muller-Hinton II Agar plates (BD Diagnostic Systems) at the standard concentration of 2×10^8 colony-forming units per mL. Antibiotic antimicrobial susceptibility disks (Thermo Scientific Oxoid™) were impregnated with one of six concentrations of PS (0%, 1%, 2%, 3%, 6%, 9%); 10 μL of each was evenly dispensed on each disk. An additional control was disks with no PS and no vehicle. The growth of bacteria around each disk was monitored and the area of “no growth” around each disk was measured 24 h later.

[3] = Rabbit ocular PK study of PS emulsion (2% PS); format: in vivo, New Zealand rabbits; settings: 2% PS emulsion
Description: A formulation includes 2% PS; 5% Propylene glycol, 10% Mineral oil, 4% Tween 60, 4% Tween 80, 10% (2-hydroxypropyl)-β-cyclodextrin (HP-β-CD). Preparation method (2 mL scale): Oil phase: weight PS into glass vial, add propylene glycol, stir at 50° C. to obtain a clear solution. Then add mineral oil, stir to obtain a clear solution. Water phase: Dissolve HP-β-CD, […] and Tween 80 into water. Add water phase into oil phase, probe-sonicate for 5 sec, 8 times, with 5 sec intervals. Resultant emulsion is filtrated through 0.22 μm filter.
Rabbit ocular pharmacokinetic (PK) study: PS was administered to New Zealand rabbits topically to the eye; as three 25 μL eye drops, 5 min apart. Rabbits were euthanized at eight specified time points between 0.25 to 16 h, ocular tissues were dissected and PS was extracted with acetonitrile and its tissue levels as well as those of its metabolites were determined by HPLC as described (Xie G. et al., Br J Pharmacol 165:2′52-2166; 2012).

[4] = Ocular PK study of PS nanoparticles (mPEG-PLA), topical eye drops; format: in vivo, New Zealand white rabbits; parameters: AUC(0-t) / AUC0-16h, cornea / AUC0-16h, conjunctiva: concentration or dose not given beside the values; settings: for AUC(0-t) / Cmax: New Zealand white, rabbit, topical or ocular
Description: Composition: ˜3.0-3.5% PS, 96.5˜97% methoxy poly(ethylene glycol)-poly(lactide) (mPEG-PLA).
Preparation Method: Oil phase: 150 mg of PS and 1 g of PEG-PLA (Akina, Inc) were dissolved in 20 mL dichloromethane (DCM). Water phase: 365 mg of sodium cholate were dissolved in 60 ml of purified water. 5 mL of the oil phase was gently added into 15 mL of the water phase in a 50 mL Eppendorf conical tube. To create an emulsion, we used robe sonication for 2 min at 75% output (Branson 150, Fisher Scientific™, USA); the watt output was 12-13. The emulsion was transferred into a 100 mL beaker and stirred overnight at 600 rpm in a chemical hood until the DCM was fully evaporated. This was followed by centrifugation at 14,000 rpm for 1 h (Dupont, RC-5C). Then, the supernatant was transferred to another tube into which 3 mL of PBS were added to resuspend the nanoparticles. The nanoparticle solution was centrifuged for 6-7 seconds to remove aggregates. This supernatant was the final preparation.
Ocular PK study: PS formulated in nanoparticles as above was administered topically as eye drops to New Zealand white rabbits. The biodistribution of PS in ocular tissues at the indicated time points post administration was determined by HPLC.

[5] = Corneal levels of a PS 0.2% solution formulation after single topical application; format: in vivo; settings: cornea, topical or ocular, 0.2 % PS solution (single application, volume not stated), mean ± SEM
Description: Another embodiment of this type of formulation is: 0.1% PS, 10% HP-β-CD, 4% Tween 80, 2.5% Vitamin E TPGS, 1.4% polyvinyl alcohol (PVA) (13,000-26,000 molecular weight), 0.001% polyquad. Another embodiment of this type of formulation is: 0.2% PS; 10% HP-β-CD; 4% Tween 80; 2.5% Vitamin E TPGS; 1.4% polyvinyl alcohol (PVA) (13,000-26,000 molecular weight); and 0.001% polyquad. Preparation method: PVA was dissolved into water by stirring at 95° C. for 6 h. All ingredients including the PVA solution and PS were added into a glass vial, stirred at 50° C. (in a water bath) for 4 h, and then stirred at RT overnight. The pH was adjusted to 7.4±0.2 with NaOH and the osmolarity to 280-320 mOsm with NaCl 18%. For a sterile final product, this solution was filtered through a […] film.
The corneal levels of a PS 0.2% formulation were determined after its single topical application to the surface of the eye.

[6] = three 25 μL eye drops, PS and its metabolites

For `CCOP(=O)(OCC)OCCCCOC(=O)CC1=C(C)/C(=C/c2ccc([S+](C)[O-])cc2)c2ccc(F)cc21` (stereo not drawn) [PS, phosphosulindac], the clinical score ([1]; mean±SEM, vehicle 3.3±0.2) was 1.8±0.2, the “inflammatory cells in the tissues of the anterior chamber” value ([1]; vehicle 203±39) was 12±2.3 and the number of cells ([1]; aqueous humor, vehicle 543±132) was 164±31. The “effect of PS on the inhibition zone of each antibiotic” value [2] was “did not appreciably change”, the “PS in the retina” value ([3]; eye drops) was “no PS was detected” and the “Cmax, aqueous humor” value [3, 6] was 0.9 μm. For the same compound, the “Cmax, conjunctiva” value [3, 6] was 33.6 μm, the “Cmax, cornea” value [3, 6] was 85.4 μm and the AUC(0-t) ([3]; New Zealand, rabbit, iris and ciliary body, topical or ocular, eye drops, read-out: AUC0-16 h in the iris and ciliary body) was less than 4 µM·h. For the same compound, the AUC(0-t) ([4]; aqueous humor, read-out: AUC0-16 h, Aqueous humor) was 3.4 µM·h, the Cmax ([4]; aqueous humor, read-out: Cmax, Aqueous humor) was 2.6 µM and the AUC(0-t) ([4]; ciliary body, read-out: AUC0-16 h, Ciliary body) was 3.6 µM·h. It also gave a Cmax ([4]; ciliary body, read-out: Cmax, Ciliary body) of 2.6 µM, an AUC(0-t) ([4]; conjunctiva, read-out: AUC0-16 h, Conjunctiva) of 61.7 µM·h and a Cmax ([4]; conjunctiva, read-out: Cmax, Conjunctiva) of 26.7 µM. It also gave an AUC(0-t) ([4]; cornea, read-out: AUC0-16 h, Cornea) of 156 µM·h, a Cmax ([4]; cornea, read-out: Cmax, Cornea) of 101 µM and an AUC(0-t) ([4]; iris, read-out: AUC0-16 h, Iris) of 13.6 µM·h. The Cmax ([4]; iris, read-out: Cmax, Iris) was 5.2 µM, the AUC(0-t) ([4]; sclera, read-out: AUC0-16 h, Sclera) was 3.3 µM·h and the Cmax ([4]; sclera, read-out: Cmax, Sclera) was 2.1 µM. For the same compound, the Cmax, conjunctiva ([4]; PS and its metabolites) was 26.7 µM, the “Cmax, cornea” value ([4]; PS and its metabolites) was 101.3 μm and the Cmax [5] was 63.4 ± 10 µM. For the same compound, the AUC(0-t) ([5]; read-out: AUC0-t, Cornea) was 62.6 ± 10.2 µM·h, the MRT inf ([5]; read-out: MRT0-inf—obs, Cornea) was 60 ± 6 min and the half-life ([5]; read-out: t1/2, Cornea (converted)) was 42 ± 12 min.
